Assay results as given in patent publication US20250041272A1, “COMPOSITIONS AND METHODS FOR TREATING CANCER VIA PTP1B INHIBITION” (priority 2021, published 2025).

Assays:
[1] = tested on: macrophage pro-inflammatory gene expression; experiment: DAMP characterization assay: nutrient deprived tumor cell conditioned medium on macrophages; assay type: cell-based, mouse; details: BVT948 5 μM, 24 hours
Method: DAMP characterization assay. B16F10 or GEMM6 cells were resuspended in DMEM deficient media with 1% penicillin-streptomycin (Gibco) and incubated for 3 days. Conditioned media was collected, filtered with a 0.2 μm filter and incubated with 0.35 U/ml proteinase K-agarose beads (Sigma Millipore) or 40 U/ml of benzonase endonuclease (Sigma Millipore) for 4 hours at 37° C. under rotation. Conditioned media was two-fold diluted with DMEM/F12 with 10% FBS, 1% penicillin-streptomycin (Gibco) and 20 ng/ml of M-CSF (Prospec), supplemented with 5 μM BVT948 (Sigma Millipore) and added to primary mural macrophages for 24 hours.
(§1) qRT-PCR. RNA was isolated using the RNeasy Plus Mini Kit (Quiagen) and cDNA was prepared using the Reverse Transcription System (Promega) with one-hour reverse transcription process. qRT-PCR was done using the PowerUp™ SYBR™ Green Master Mix (Applied Biosystems) on a QuantStudio Pro Real-time PCR system (Applied Biosystems) with a 95° C. pretreatment of 10 min, 50 cycles of 95° C., 10 sec and 60° C., 1 min and melt curve at the end. Analysis was performed with the 2^−ΔΔCT method(136).

B16F10 tumors = experiment: Subcutaneous B16F10 melanoma tumor model; assay type: in vivo, mouse
Method: Tumor implantation, treatment and harvest. For animal studies, 1*10^5 B16F10 luciferase-tagged melanoma cells, 1*10^6 GEMM6 melanoma cells or 2*10^6 LCC cells were implanted subcutaneously into C57BL/6J mice (randomized, both males and females, 000664 The Jackson laboratory). When indicated, mice received intraperitoneal injections 7 days after implantation with 100 μl of 5 mg/kg cisplatin (Tocris), 100 μl of 10 mg/kg BVT948 (Tocris) or 100 μl of 30 mg/kg of vemurafenib. 5 mice were used per experimental group and tumors were harvested when they reached 1.5 cm in any direction.
Immunohistochemistry analysis. Immunohistochemistry assay was carried out in formalin-fixed, paraffin-embedded 4 μm sections using primary antibodies against F4:80 (AbD Serotec), CD11b (Abcam), CD4 (eBioscience) or CD8a (eBioscience) on a Discovery Ultra Automated IHC staining system (Ventana). Sections were then imaged using a ScanScope XT microscope (Aperio) and quantified using Aperio software.

[2] = tested on: MyD88 protein in macrophages; experiment: Immunofluorescent staining of M1 macrophages cultured in B16F10 conditioned medium; assay type: cell-based, mouse; details: 24 hours
Method: Immunofluorescence staining and quantitation. After treatments, mouse macrophages were fixed with 4% formaldehyde (Electron Microscopy Sciences) and permeabilized with acetone (Fisher scientific). Samples were blocked using BlockAid blocking solution (Thermofisher scientific), were incubated with primary antibodies to MyD88 (Cell signaling), CD86 (Biolegend) and total STAT1 (Cell signaling) and Alexa Fluor 488-labeled secondary antibody (LifeTech) and were mounted with SlowFade Gold Antifade Mountant with DAPI (Invitrogen). Images were taken with using a BZ-X810 all-in-one fluorescence microscope (Keyence). Fluorescence intensity was measured with BZ-X800 software while colocalization was analyzed using ImageJ software with JACoP plugin (NIH)

[3] = tested on: macrophage M1 associated gene expression; experiment: Cisplatin treated transwell co-culture of macrophages and B16F10 cells, qRT-PCR; assay type: cell-based, mouse
Method: Peritoneal macrophage isolation and culture. Peritoneal macrophages were done as described previously(65) from 8-week-old C57BL/6J mice (randomized, both male and female). PBS (Gibco) was injected in the mural peritoneal cavity to release the macrophages. After recovering, cells were centrifuged at 1200 rpm for 5 minutes, resuspended in DMEM high glucose, 10% FBS, 1% penicillin-streptomycin (Gibco) and plated. 2 hours after the last step, cells were washed with PBS and maintained in DMEM/F12 supplemented with 10% FBS, 1% penicillin-streptomycin and 20 ng/ml of M-CSF (Prospec) for 2 days. Macrophages were treated for 24 hours with 50 ng/ml LPS (Sigma Millipore), 100 ng/ml IFNγ (BioLegend), 300 ng/ml PAM3CSK4 (InvivoGen), 107 cells/ml heat killed Listeria Monocytogenes (HKLM) (InvivoGen), 100 ng/ml Flagellin Salmonella typhimurium standard (InvivoGen), 10 ng/ml FSL1 (InvivoGen), 2.5 ug/ml ssRNA40 (InvivoGen), 2.5 ug/ml CL 075 (Tocris), 5 μM ODN1826, 50 μM Fludarabine (SelleckChem), 50 nM Momelotinib (SelleckChem), 5 μM BVT948 (Sigma Millipore), 200 μM PTP1b inhibitor III (Santa Cruz Biotechnology Inc.), 5 μM NSC87877 (Santa Cruz Biotechnology Inc.), 50 μM PTP1b inhibitor (Cayman), 1 mM PTP Inhibitor IV (Santa Cruz Biotechnology Inc.), 1 μM TSC401, 300 nM UNC2371 (SelleckChem), 300 nM BMS777607 (SelleckChem), 300 nM LDC1267 (SelleckChem) 1.5 μg/ml recombinant Pros1 (R&D systems), 200 ng/ml recombinant Gas6 (R&D systems) or 10-500 μM Cisplatin (Tocris). All components were added as described in the text. Cell culture. B16F10 (CRL-6475, ATCC), Lewis lung carcinoma (LLC) (CRL-1642, ATCC), KPC2713 (Yuliya Pylayeva-Gupta laboratory, UNC) and MDA-MB-231 (HTB-26, ATCC) were cultured in DMEM high glucose supplemented with 10% FBS, 1% penicillin-streptomycin (Gibco). GEMM6 (Dr. Alisha Holtzhausen, UNC), KPPC4662 (Dr. Yuliya Pylayeva-Gupta laboratory, UNC), KPPC4548 (Yuliya Pylayeva-Gupta laboratory, UNC) and E0771 (CRL-3461, ATCC) were maintained in RPMI 1640 supplemented with […], 1% penicillin/streptomycin (Gibco) while PyMT cells were cultured in Ham's F-12K with 10% FBS, 1% penicillin-streptomycin (Gibco). Transwell assays were performed in 0.4 μm polyester membrane insert culture plates (Corning). 500,000 cells of each line were plated per well in DMEM/F12 supplemented with 10% FBS, 1% penicillin-streptomycin and 20 ng/ml of M-CSF for culture with mouse macrophages. SC cells (CRL-9855, ATCC) were cultured in IMDM with 10% FBS and 1% penicillin-streptomycin (Gibco). In transwell experiments with the SC cell line, cancer cells were also resuspended in IMDM media.
as §1

Substance: BVT948
- DAMP mediated macrophage activation (pro-inflammatory gene expression) ([1]; B16F10 nutrient deprivation conditioned medium): able to restore DAMP mediated macrophage activation
- pro-inflammatory gene expression ([1]; GEMM6 nutrient deprivation conditioned medium): rescued pro-inflammatory gene expression
- B16F10 tumor growth, monotherapy vs vehicle (B16F10 tumors; BVT948 10 mg/kg or Cisplatin 5 mg/kg intraperitoneal, treatment from 50 mm^3): did not significantly reduce
- decrease in B16F10 tumor growth, combination (B16F10 tumors; BVT948 in combination with Cisplatin): roughly 50%
- reduction in tumor viability (H&E staining) (B16F10 tumors; BVT948 monotherapy, B16F10 tumors): 20%
- intra-tumoral immune infiltrate (B16F10 tumors; BVT948 monotherapy, end-stage B16F10): some increases in macrophage and T cells
- MyD88 protein level and localization [2]: increased MyD88
- macrophage pro-inflammatory gene expression, PTP1b inhibition in combination with Cisplatin ([3]; BVT948 with Cisplatin 50 μM to 500 μM, wildtype macrophages with B16F10 cells): able to restore macrophage pro-inflammatory gene expression, in a dose dependent manner
- M1 gene expression in MyD88 knockout macrophages ([3]; increasing Cisplatin, with or without BVT948): Neither increasing concentrations of Cisplatin, nor PTP1 b inhibition, were able to restore M1 gene expression
